In test [1] the target is T1, 20S Human Erythrocyte Proteasome (HEP) (Homo sapiens, UniProt P20618+P28074).
T1 construct: 20S Human Erythrocyte Proteasome (HEP), purchased from Immatics Biotechnologies Inc; purchased Immatics Biotechnologies Inc., Tübingen, Germany; host or cells: human erythrocytes (natural source)
The experiment in a line: Chymotrypsin-like activity of 20S Human Erythrocyte Proteasome (HEP), IC50 determination. In kind it is biochemical. As to conditions: assay of Example C, inhibition of HEP. The method, boiled down: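 20S proteasome at 0.2 μg/mL (about 0.6 nM catalytic sites) in 20 mM Tris with 0.04% SDS, preincubated 15 min at 37° C with inhibitor before Suc-LLVY-AMC (100 μM final). AMC fluorescence read in the linear range; triplicates, IC50 from concentration series.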

For test [2], the target named is T2, proteasome in Molt-4 cells (human leukemia) (Homo sapiens, UniProt P20618+P28074).
T2 sequence (P28074 60-263): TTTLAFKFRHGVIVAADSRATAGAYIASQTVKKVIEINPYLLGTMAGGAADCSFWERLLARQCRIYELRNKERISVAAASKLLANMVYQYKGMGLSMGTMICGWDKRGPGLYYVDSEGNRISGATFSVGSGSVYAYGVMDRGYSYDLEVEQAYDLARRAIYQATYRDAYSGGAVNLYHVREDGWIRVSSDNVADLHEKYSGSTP
T2 sequence (P20618 29-241): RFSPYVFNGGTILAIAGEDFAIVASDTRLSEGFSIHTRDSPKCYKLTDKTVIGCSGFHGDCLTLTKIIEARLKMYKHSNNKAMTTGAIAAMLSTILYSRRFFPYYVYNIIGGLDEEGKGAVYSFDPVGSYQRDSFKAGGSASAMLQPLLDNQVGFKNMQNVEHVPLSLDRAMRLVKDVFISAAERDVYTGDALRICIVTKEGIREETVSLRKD
In kind it is cell-based. The method in brief:
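Intact Molt-4 cells (6×10^6 cells/mL) in HEPES-buffered saline were preincubated with inhibitor 15 min at 37 °C, then given cell-permeable MeOSuc-FLF-AFC at 25 μM final.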

Where [3] appears, read: assay of Example E, inhibition of MOLT4; read-out: MOLT4 (EC50).
The mark [4] stands for this setting: read-out: MOLT4 (EC50); assay of Example E, inhibition of MOLT4.

Molecules are shown by their SMILES. Counter-ions that a name gives are not always drawn. Like-named read-outs stand apart in the source and are kept apart here.

For `CC(C)C[C@H](NC(=O)[C@H](CCCNC(=N)N[N+](=O)[O-])NC(=O)c1cnccn1)B(O)O` [E.1.2, Boronic acid, [(1R)-1-[[(2S)-5-[[imino(nitroamino)methyl]amino]-2-[(2-pyrazine-carbonyl)amino]-1-oxopentyl]amino]-3-methylbutyl]], the 50% inhibitory concentration (IC50) (in general, the point on the concentration scale where inhibition reaches its midpoint) in test [1] was < 10 nM. Further, the EC50 (as a rule, the concentration at which the effect is half-maximal) in test [2] (setting [3]) was 2000 to 10000 nM.

For the compound `CCCCc1ccc(C(=O)N[C@@H](CCCNC(=N)N[N+](=O)[O-])C(=O)N[C@@H](CC(C)C)B(O)O)cc1` [E.1.3, Boronic acid, [(1R)-1-[[(2S)-5-[[imino(nitroamino)methyl]amino]-2-[(4-butyl-benzoyl)amino]-1-oxopentyl]amino]-3-methylbutyl]], in test [1], the IC50 is < 10 nM. For the same compound, in test [2] (setting [3]), the EC50 lay within 200 to 2000 nM.

As for `CC(C)C[C@H](NC(=O)[C@H](CCCNC(=N)N[N+](=O)[O-])NC(=O)c1ccc2ccccc2c1)B(O)O` [E.1.4, Boronic acid, [(1R)-1-[[(2S)-5-[[imino(nitroamino)methyl]amino]-2-[(2-naphthoyl)amino]-1-oxopentyl]amino]-3-methylbutyl]], the 50% inhibitory concentration (IC50) in test [1] is < 10 nM. Also, in test [2] (setting [3]), the EC50 was 200 to 2000 nM.

In the case of `CC(C)C[C@H](NC(=O)[C@H](CCCNC(=N)N[N+](=O)[O-])NC(=O)CCN1C(=O)c2ccccc2C1=O)B(O)O` [E.1.5], in test [1], the half-maximal inhibitory concentration (IC50) is < 10 nM. Besides, the EC50 in test [2] (setting [3]) was > 10000 nM.

Regarding `COCCOCC(=O)N[C@@H](CCCNC(=N)N[N+](=O)[O-])C(=O)N[C@@H](CC(C)C)B(O)O` [E.1.6, Boronic acid, [(1R)-1-[[(2S)-5-[[imino(nitroamino)methyl]amino]-2-[[2-(2-methoxyethoxy)acetyl]amino]-1-oxopentyl]amino]-3-methylbutyl], HCl salt], the IC50 in test [1] was < 100 nM. Moreover, the EC50 in test [2] (setting [4]) was in the range of 2000 to 10000 nM.

On to `CCCCOCC(=O)N[C@@H](CCCNC(=N)N[N+](=O)[O-])C(=O)N[C@@H](CC(C)C)B(O)O` [E.1.7, Boronic acid, [(1R)-1-[[(2S)-5-[[imino (nitroamino)methyl]amino]-2-[(2-butoxyacetyl)amino]-1-oxopentyl]amino]-3-methylbutyl]], for which the half-maximal inhibitory concentration (IC50) in test [1] is < 10 nM. For the same compound, in test [2] (setting [3]), the concentration giving a half-maximal response (EC50) was 2000 to 10000 nM.

In the case of `COCCOCCOCC(=O)N[C@@H](CCCNC(=N)N[N+](=O)[O-])C(=O)N[C@@H](CC(C)C)B(O)O` [E.1.8, Boronic acid, [(1R)-1-[[(2S)-5-[[imino(nitroamino)methyl]amino]-2-[[2-[2-(2-methoxyethoxy)ethoxy]acetyl]amino]-1-oxopentyl]amino]-3-methylbutyl]], in test [1], the IC50 is < 10 nM. For the same compound, the EC50 in test [2] (setting [3]) was > 10000 nM.

Take `CC(C)C[C@H](NC(=O)[C@H](CCCNC(=N)N[N+](=O)[O-])NC(=O)COc1ccc2ccccc2c1)B(O)O` [E.1.11, Boronic acid, [(1R)-1-[[(2S)-5-[[imino(nitroamino)methyl]amino]-2-[(2-(naphthalen-2-yloxy)acetyl]amino]-1-oxopentyl]amino]-3-methylbutyl]]: the IC50 in test [1] is < 10 nM. In addition, in test [2] (setting [3]), the 50% effective concentration (EC50) lay in the range of 200 to 2000 nM.

Take `CC(C)C[C@H](NC(=O)[C@H](CCCNC(=N)N[N+](=O)[O-])NC(=O)CCc1cccs1)B(O)O` [E.1.12, Boronic acid, [(1R)-1-[[(2S)-5-[[imino(nitroamino)methyl]amino]-2-[(3-thiophen-2-yl-propanoyl)amino]-1-oxopentyl]amino]-3-methylbutyl]]: in test [1], the IC50 is < 10 nM. The 50% effective concentration (EC50) in test [2] (setting [3]) was > 10000 nM.

`CC(C)C[C@H](NC(=O)[C@H](CCCNC(=N)N[N+](=O)[O-])NC(=O)Cc1ccccc1Cl)B(O)O` [E.1.13, Boronic acid, [(1R)-1-[[(2S)-5-[[imino(nitroamino)methyl]amino]-2-[2-(2-chlorophenyl)acetyl]amino]-3-methylbutyl] HCl salt]: the concentration for half-maximal inhibition (IC50) in test [1] was < 10 nM. The EC50 in test [2] (setting [4]) fell in the range of 2000 to 10000 nM.

Turning to `CCCCCCCCS(=O)(=O)N[C@@H](CCCNC(=N)N[N+](=O)[O-])C(=O)N[C@@H](CC(C)C)B(O)O` [E.1.15, Boronic acid, [(1R)-1-[[(2S)-5-[[imino(nitroamino)methyl]amino]-2-[(1-octanesulfonyl)amino]-1-oxopentyl]amino]-3-methylbutyl], HCl salt], the IC50 in test [1] was < 10 nM. The EC50 in test [2] (setting [4]) was in the range of 200 to 2000 nM.

For the compound `CCCCCCCCCC(=O)N[C@@H](CNC(=O)c1ccc(C)cc1)C(=O)N[C@@H](CC(C)C)B(O)O` [E.1.16, Boronic acid, [(1R)-1-[[(2S)-3-[(4-methylbenzoyl)amino]-2-[(decanoylamino)]-1-oxopropyl]amino]-3-methylbutyl]], the IC50 in test [1] is < 10 nM. Besides, the EC50 in test [2] (setting [3]) is < 200 nM.

Take `CCCCCCCCCC(=O)N[C@H](C(=O)N[C@@H](CC(C)C)B(O)O)[C@@H](C)O` [E.1.17, Boronic acid, [(1R)-1-[[(2S,3R)-3-hydroxy-2-[(decanoyl)amino]-1-oxobutyl]amino]-3-methylbutyl]]: the half-inhibitory concentration (IC50) in test [1] was < 10 nM. Moreover, in test [2] (setting [3]), the EC50 is < 200 nM.

Turning to `CC(C)C[C@H](NC(=O)[C@@H](NC(=O)CCCCCCCCCN1C(=O)c2ccccc2C1=O)[C@@H](C)O)B(O)O` [E.1.18, Boronic acid, [(1R)-1-[[(2S,3R)-3-hydroxy-2-[[10-(1,3-dioxo-1,3-dihydro-isoindol-2-yl)-decanoyl]amino]-1-oxobutyl]amino]-3-methylbutyl]], the IC50 in test [1] is < 10 nM. The EC50 in test [2] (setting [3]) was < 200 nM.

In the case of `CC(C)C[C@H](NC(=O)[C@H](CCCNC(=N)N[N+](=O)[O-])NC(=O)CCCCCCCCCN1C(=O)c2ccccc2C1=O)B(O)O` [E.1.20], in test [1], the concentration for half-maximal inhibition (IC50) is < 10 nM. Besides, the concentration giving a half-maximal response (EC50) in test [2] (setting [3]) is < 200 nM.

Take `CC(C)C[C@H](NC(=O)[C@H](CCCN/C(N)=N/[N+](=O)[O-])NC(=O)C(CCCCCCCCN1C(=O)c2ccccc2C1=O)C1CCCC1)B(O)O` (stereo partly shown) [E.1.21]: the IC50 in test [1] was < 10 nM. In addition, in test [2] (setting [3]), the EC50 was < 200 nM.

With `COC(=O)CCCCCCC(=O)N[C@@H](CCCNC(=N)N[N+](=O)[O-])C(=O)N[C@@H](CC(C)C)B(O)O` [E.1.22, Boronic acid, [(1R)-1-[[(2S)-5-[[imino(nitroamino)methyl]amino]-2-[[7-(methoxycarbonyl)heptanoyl]amino]-1-oxopentyl]amino]-3-methylbutyl]], the IC50 in test [1] was < 10 nM. In addition, in test [2] (setting [3]), the concentration giving a half-maximal response (EC50) was > 10000 nM.

`CC(C)C[C@H](NC(=O)[C@@H](NC(=O)CCCc1ccccc1)[C@@H](C)O)B(O)O` [E.1.23, Boronic acid, [(1R)-1-[[(2S,3R)-3-hydroxy-2-[(4-phenylbutanoyl)amino]-1-oxobutyl]amino]-3-methylbutyl]]: the half-maximal inhibitory concentration (IC50) in test [1] is < 10 nM. Besides, in test [2] (setting [3]), the half-maximal effective concentration (EC50) was < 200 nM.

With `CCCCCCCCCCCNC(=O)N[C@H](C(=O)N[C@@H](CC(C)C)B(O)O)[C@@H](C)O` [E.1.24, Boronic acid, [(1R)-1-[[(2S,3R)-3-hydroxy-2-[(undecylaminocarbonyl)amino]-1-oxobutyl]amino]-3-methylbutyl]], the half-maximal inhibitory concentration (IC50) in test [1] was < 10 nM. The EC50 in test [2] (setting [3]) was < 200 nM.

Take `CC(C)C[C@H](NC(=O)[C@@H](NC(=O)c1ccc2ccccc2c1Br)[C@@H](C)O)B(O)O` [E.1.25, Boronic acid, [(1R)-1-[[(2S,3R)-3-hydroxy-2-[(1-Bromo-2-naphthoyl)amino]-1-oxobutyl]amino]-3-methylbutyl]]: the IC50 in test [1] was < 10 nM. Moreover, the EC50 in test [2] (setting [3]) was < 200 nM.

These data come from US8546608B2, “Proteasome inhibitors and methods of using the same” (Cephalon, Inc., priority 2003, dated 2013).
